Laboratory results as given in patent US20260167623A1 (NIKANG THERAPEUTICS, INC., priority 2022, published 2026).

These molecules were tested against T1, CDK2 (Homo sapiens, UniProt P24941) (assay: Inhibition of CDK2: phospho-Rb (S807/811) HTRF measurement in OVCAR3 cells, 24 h). Details: 24 h compound treatment, read-out: pRB_OVCAR3_24h.
T1 construct: High-Throughput Measurement of Cellular Endogenous CDK2; endogenous in cells; host or cells: OVCAR3
Assay type: cell-based
Outline: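 OVCAR3 cells, seeded overnight, were exposed to compounds at 0.3 to 10,000 nM for 24 h, then lysed. Rb S807/811 phosphorylation read by HTRF (665/620 nm ratio) after 4 h detection at room temperature; data normalized to DMSO and IC50 from four-parameter logistic fit.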

Compound	IC50
Cn1nc(N2CCC(=O)NC2=O)c2ccc(C3CCN(CC4CN(c5cccc(S(=O)(=O)N6CCC(Nc7ncc(Cl)cn7)CC6)c5)C4)CC3)cc21 [Example 129, 1-(6-(1-((1-(3-((4-((5-chloropyrimidin-2-yl)amino)piperidin-1-yl)sulfonyl)phenyl)-azetidin-3-yl)methyl)piperidin-4-yl)-1-methyl-1H-indazol-3-yl)dihydropyrimidine-2,4(1H,3H)-dione]	1 to 100 nM
Cn1nc(N2CCC(=O)NC2=O)c2ccc(N3CCC(CN4CCN(c5cccc(S(=O)(=O)N6CCC(Nc7ncc(Cl)cn7)CC6)c5)CC4)CC3)cc21 [Example 138, 1-(6-(4-((4-(3-((4-((5-chloropyrimidin-2-yl)amino)piperidin-1-yl)sulfonyl)phenyl)-piperazin-1-yl)methyl)piperidin-1-yl)-1-methyl-1H-indazol-3-yl)dihydropyrimidine-2,4(1H,3H)-dione]	> 2500 nM
O=C1CCN(c2ccc(N3CCN(CC4CCN(c5cccc(S(=O)(=O)N6CCC(Nc7ncc(Cl)cn7)CC6)c5)CC4)CC3)cc2)C(=O)N1 [Example 109, 1-(4-(4-((1-(3-((4-((5-chloropyrimidin-2-yl)amino)piperidin-1-yl)sulfonyl)phenyl)-piperidin-4-yl)methyl)piperazin-1-yl)phenyl) dihydropyrimidine-2,4(1H,3H)-dione]	100 to 500 nM
Cn1nc(N2CCC(=O)NC2=O)c2ccc(C3CN(CC4CCN(c5cccc(S(=O)(=O)N6CCC(Nc7ncc(C(F)(F)F)cn7)CC6)c5)CC4)C3)cc21 [Example 118, 1-(1-methyl-6-(1-((1-(3-((4-((5-(trifluoro-methyl)pyrimidin-2-yl)amino)piperidin-1-yl)sulfonyl)phenyl)piperidin-4-yl)methyl)-azetidin-3-yl)-1H-indazol-3-yl)dihydropyrimidine-2,4(1H,3H)-dione]	1 to 100 nM
O=C1CCN(c2nn(CC(F)(F)F)c3cc(C4CCN(Cc5cccc(S(=O)(=O)N6CCC(Nc7ncc(C(F)(F)F)cn7)CC6)c5)CC4)ccc23)C(=O)N1 [Example 5, 1-(1-(2,2,2-trifluoroethyl)-6-(1-(3-((4-((5-(trifluoromethyl)pyrimidin-2-yl)amino)-piperidin-1-yl)sulfonyl)benzyl)-piperidin-4-yl)-1H-indazol-3-yl)dihydropyrimidine-2,4(1H,3H)-dione]	100 to 500 nM
Cn1nc(N2CCC(=O)NC2=O)c2ccc(C3CCN(Cc4cccc(S(=O)(=O)[C@H]5CC[C@H](Nc6ncc(C(F)(F)F)cn6)CC5)c4)CC3)cc21 [Example 10, 1-(1-methyl-6-(1-(3-(((1r,4r)-4-((5-(trifluoromethyl)pyrimidin-2-yl)amino)-cyclohexyl)sulfonyl)benzyl)piperidin-4-yl)-1H-indazol-3-yl)dihydropyrimidine-2,4(1H,3H)-dione]	500 to 2500 nM
Cn1nc(N2CCC(=O)NC2=O)c2ccc(C3CCN(C[C@@H]4CCN(c5cccc(S(=O)(=O)N6CCC(Nc7ncc(Cl)cn7)CC6)c5)C4)CC3)cc21 [Example 135, (S)-1-(6-(1-((1-(3-((4-((5-chloropyrimidin-2-yl)amino)piperidin-1-yl)sulfonyl)phenyl)-pyrrolidin-3-yl)methyl)piperidin-4-yl)-1-methyl-1H-indazol-3-yl)dihydropyrimidine-2,4(1H,3H)-dione]	100 to 500 nM
Cn1cc(-c2cnc(NC3CCN(S(=O)(=O)c4cccc(N5CCC(CN6CCC(c7ccc8c(N9CCC(=O)NC9=O)nn(C)c8c7)CC6)CC5)c4)CC3)nc2)cn1 [Example 155, 1-(1-methyl-6-(1-((1-(3-((4-((5-(1-methyl-1H-pyrazol-4-yl)pyrimidin-2-yl)amino)piperidin-1-yl)sulfonyl)phenyl)piperidin-4-yl)methyl)piperidin-4-yl)-1H-indazol-3-yl)dihydropyrimidine-2,4(1H,3H)-dione]	> 2500 nM
Cn1nc(N2CCC(=O)NC2=O)c2cccc(C3CCN(CC4CCN(c5cccc(S(=O)(=O)N6CCC(Nc7ncc(C(F)(F)F)cn7)CC6)c5)CC4)CC3)c21 [Example 145, 1-(1-methyl-7-(1-((1-(3-((4-((5-(trifluoro-methyl)pyrimidin-2-yl)amino)piperidin-1-yl)sulfonyl)phenyl)piperidin-4-yl)methyl)-piperidin-4-yl)-1H-indazol-3-yl)dihydropyrimidine-2,4(1H,3H)-dione]	100 to 500 nM

Second part, the molecule after the results:

IC50	Compound
500 to 2500 nM	Cn1nc(N2CCC(=O)NC2=O)c2ccc(C3CCN(Cc4ccnc(S(=O)(=O)N5CCC(Nc6ncc(C(F)(F)F)cn6)CC5)c4)CC3)cc21 [Example 183, 1-(1-methyl-6-(1-((2-((4-((5-(trifluoromethyl)pyrimidin-2-yl)amino)piperidin-1-yl)sulfonyl)pyridin-4-yl)methyl)piperidin-4-yl)-1H-indazol-3-yl)dihydropyrimidine-2,4(1H,3H)-dione]
> 2500 nM	Cn1nc(N2CCC(=O)NC2=O)c2ccc(C3CCN(CC4CCN(c5cccc(S(=O)(=O)N6CC7CCC(C6)C7Nc6ncc(Cl)cn6)c5)CC4)CC3)cc21 (racemic) [Example 229, Rac-1-(6-(1-((1-(3-(((1R,5S,8s)-8-((5-chloropyrimidin-2-yl)amino)-3-azabicyclo[3.2.1]octan-3-yl)sulfonyl)phenyl)piperidin-4-yl)methyl)piperidin-4-yl)-1-methyl-1H-indazol-3-yl)dihydropyrimidine-2,4(1H,3H)-dione]
500 to 2500 nM	Cn1nc(N2CCC(=O)NC2=O)c2ncc(C3CCN(CC4CCN(c5cccc(S(=O)(=O)N6CCC(Nc7ncc(Cl)cn7)CC6)c5)CC4)CC3)cc21 [Example 215]
100 to 500 nM	CC(Cc1cccc(S(=O)(=O)N2CCC(Nc3ncc(C(F)(F)F)cn3)CC2)c1)CN1CCN(c2cc3c(cc2F)C(=O)N(C2CCC(=O)NC2=O)C3)CC1 (stereo not drawn) [Example 96, 3-(6-fluoro-5-(4-(2-methyl-3-(3-((4-((5-(trifluoromethyl)pyrimidin-2-yl)amino)-piperidin-1-yl)sulfonyl)phenyl)propyl)-piperazin-1-yl)-1-oxoisoindolin-2-yl)piperidine-2,6-dione]
> 2500 nM	Cn1nc(N2CCC(=O)NC2=O)c2ccc(C3CCN(Cc4cccc(S(=O)(=O)N5CCC(Nc6ncc(F)cn6)CC5)c4)CC3)cc21 [Example 26, 1-(6-(1-(3-((4-((5-fluoropyrimidin-2-yl)amino)piperidin-1-yl)sulfonyl)benzyl)-piperidin-4-yl)-1-methyl-1H-indazol-3-yl)dihydropyrimidine-2,4(1H,3H)-dione]
100 to 500 nM	O=C1CCC(n2c(=O)n(C3CCN(CC4CCN(c5cccc(S(=O)(=O)N6CCC(Nc7ncc(C(F)(F)F)cn7)CC6)c5)CC4)CC3)c3ccccc32)C(=O)N1 (stereo not drawn) [Example 171, 3-(2-oxo-3-(1-((1-(3-((4-((5-(trifluoromethyl)pyrimidin-2-yl)amino)piperidin-1-yl)sulfonyl)phenyl)piperidin-4-yl)methyl)piperidin-4-yl)-2,3-dihydro-1H-benzo[d]imidazol-1-yl)piperidine-2,6-dione]
> 2500 nM	Cn1nc(N2CCC(=O)NC2=O)c2ccc(C3CCN(CC4(C#N)CCN(c5cccc(S(=O)(=O)N6CCC(Nc7ncc(Cl)cn7)CC6)c5)CC4)CC3)cc21 [Example 164, 1-(3-((4-((5-chloropyrimidin-2-yl)amino)piperidin-1-yl)sulfonyl)phenyl)-4-((4-(3-(2,4-dioxotetrahydropyrimidin-1(2H)-yl)-1-methyl-1H-indazol-6-yl)piperidin-1-yl)methyl)piperidine-4-carbonitrile]
500 to 2500 nM	Cn1nc(N2CCC(=O)NC2=O)c2ncc(C3CCN(CC4CCN(c5cccc(S(=O)(=O)N6CCC(Nc7ncc(C(F)(F)F)cn7)CC6)c5)CC4)CC3)cc21 [Example 212, 1-(1-methyl-6-(1-((1-(3-((4-((5-(trifluoromethyl)pyrimidin-2-yl)amino)piperidin-1-yl)sulfonyl)phenyl)piperidin-4-yl)methyl)piperidin-4-yl)-1H-pyrazolo[4,3-b]pyridin-3-yl)dihydropyrimidine-2,4(1H,3H)-dione]
500 to 2500 nM	Cn1nc(N2CCC(=O)NC2=O)c2ccc(C3CCN(CC4CCN(c5cc(C(F)(F)F)cc(S(=O)(=O)N6CCC(Nc7ncc(Cl)cn7)CC6)c5)CC4)CC3)cc21 [Example 170, 1-(6-(1-((1-(3-((4-((5-chloropyrimidin-2-yl)amino)piperidin-1-yl)sulfonyl)-5-(trifluoromethyl)phenyl)piperidin-4-yl)methyl)piperidin-4-yl)-1-methyl-1H-indazol-3-yl)dihydropyrimidine-2,4(1H,3H)-dione]
100 to 500 nM	O=C1CCC(N2Cc3cc(N4CCN(Cc5cccc(S(=O)(=O)N6CCC(Nc7ncc(Cl)cn7)CC6)c5)CC4)c(F)cc3C2=O)C(=O)N1 (stereo not drawn) [Example 34, 3-(5-(4-(3-((4-((5-chloropyrimidin-2-yl)amino)piperidin-1-yl)sulfonyl)benzyl)-piperazin-1-yl)-6-fluoro-1-oxoisoindolin-2-yl)piperidine-2,6-dione]
1 to 100 nM	Cn1c(=O)n(C2CCC(=O)NC2=O)c2cccc(C3CCN(CC4CCN(c5cccc(S(=O)(=O)N6CCC(Nc7ncc(OC(F)F)cn7)CC6)c5)CC4)CC3)c21 (stereo not drawn) [Example 121, 3-(4-(1-((1-(3-((4-((5-(difluoromethoxy)-pyrimidin-2-yl)amino)piperidin-1-yl)sulfonyl)phenyl)piperidin-4-yl)methyl)-piperidin-4-yl)-3-methyl-2-oxo-2,3-dihydro-1H-benzo[d]imidazol-1-yl)piperidine-2,6-dione]
100 to 500 nM	Cn1nc(-n2ccc(=O)[nH]c2=O)c2ccc(C3CCN(CC4CCN(c5cccc(S(=O)(=O)N6CCC(Nc7ncc(Cl)cn7)CC6)c5)CC4)CC3)cc21 [Example 210, 1-(6-(1-((1-(3-((4-((5-chloropyrimidin-2-yl)amino)piperidin-1-yl)sulfonyl)phenyl)piperidin-4-yl)methyl)piperidin-4-yl)-1-methyl-1H-indazol-3-yl)pyrimidine-2,4(1H,3H)-dione]
